Assay results as given in the supplement of paper PMC10307832.

What was measured:
Experiment in all cases: relative viability (nuclei count vs DMSO), 5 days (fraction); higher = more cells survive
Afatinib + Dasatinib = compound: CN(C)C/C=C/C(=O)Nc1cc2c(Nc3ccc(F)c(Cl)c3)ncnc2cc1O[C@H]1CCOC1 [Afatinib] + Cc1nc(Nc2ncc(C(=O)Nc3c(C)cccc3Cl)s2)cc(N2CCN(CCO)CC2)n1 [Dasatinib] (partner 0.075 µM)
Outline: (§1)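 Five library-drug doses in √10 steps were combined with a fixed anchor-drug dose, or a single drug was given alone, by pin tool to lung cancer cell lines in 1536-well plates the day after seeding. Nuclei were stained and counted after 5 days. Relative viability is the nuclei count in treated wells over that in vehicle wells, taken as the median of duplicate plates.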

Afatinib + Palbociclib = compound: CN(C)C/C=C/C(=O)Nc1cc2c(Nc3ccc(F)c(Cl)c3)ncnc2cc1O[C@H]1CCOC1 [Afatinib] + CC(=O)c1c(C)c2cnc(Nc3ccc(N4CCNCC4)cn3)nc2n(C2CCCC2)c1=O [Palbociclib] (partner 0.5 µM)
Outline: as §1

Afatinib + Bortezomib = compound: CN(C)C/C=C/C(=O)Nc1cc2c(Nc3ccc(F)c(Cl)c3)ncnc2cc1O[C@H]1CCOC1 [Afatinib] + CC(C)C[C@H](NC(=O)[C@H](Cc1ccccc1)NC(=O)c1cnccn1)B(O)O [Bortezomib] (partner 0.002 µM)
Outline: as §1

Afatinib + Alpelisib = compound: CN(C)C/C=C/C(=O)Nc1cc2c(Nc3ccc(F)c(Cl)c3)ncnc2cc1O[C@H]1CCOC1 [Afatinib] + Cc1nc(NC(=O)N2CCC[C@H]2C(N)=O)sc1-c1ccnc(C(C)(C)C(F)(F)F)c1 [Alpelisib] (partner 2 µM)
Outline: as §1

Cell Line	relative viability (Afatinib + Dasatinib; first compound 0.005 µM)	relative viability (Afatinib + Dasatinib; first compound 0.01581 µM)	relative viability (Afatinib + Dasatinib; first compound 0.05 µM)	relative viability (Afatinib + Dasatinib; first compound 0.1581 µM)	relative viability (Afatinib + Dasatinib; first compound 0.5 µM)	relative viability (Afatinib + Palbociclib; first compound 0.005 µM)	relative viability (Afatinib + Palbociclib; first compound 0.01581 µM)	relative viability (Afatinib + Palbociclib; first compound 0.05 µM)	relative viability (Afatinib + Palbociclib; first compound 0.1581 µM)	relative viability (Afatinib + Palbociclib; first compound 0.5 µM)	relative viability (Afatinib + Bortezomib; first compound 0.005 µM)	relative viability (Afatinib + Bortezomib; first compound 0.01581 µM)	relative viability (Afatinib + Bortezomib; first compound 0.05 µM)	relative viability (Afatinib + Bortezomib; first compound 0.1581 µM)	relative viability (Afatinib + Bortezomib; first compound 0.5 µM)	relative viability (Afatinib + Alpelisib; first compound 0.005 µM)	relative viability (Afatinib + Alpelisib; first compound 0.01581 µM)	relative viability (Afatinib + Alpelisib; first compound 0.05 µM)	relative viability (Afatinib + Alpelisib; first compound 0.1581 µM)	relative viability (Afatinib + Alpelisib; first compound 0.5 µM)
HCC-15	0.609	0.646	0.617	0.609	0.642	0.743	0.753	0.702	0.755	0.746	1.04	1.09	1.04	1.04	1.03	0.855	0.816	0.902	0.855	0.889
PC-3 [JPC-3]	0.46	0.339	0.286	0.25	0.33	0.484	0.444	0.441	0.362	0.397	0.516	0.351	0.315	0.406	0.303	0.49	0.392	0.377	0.362	0.354
NCI-H1993	0.459	0.561	0.585	0.729	0.576	0.532	0.571	0.539	0.538	0.577	0.891	0.633	0.678	0.692	0.706	0.608	0.771	0.721	0.765	0.705
NCI-H1915	0.361	0.347	0.313	0.301	0.304	0.564	0.539	0.526	0.506	0.491	0.994	1	0.938	1	0.952	1.09	1.09	1.06	1.02	0.972
RERF-LC-KJ	0.663	0.662	0.736	0.61	0.616	1.05	1.02	0.984	0.85	0.825	1.01	1.16	0.901	0.818	0.793	0.784	0.636	0.601	0.572	0.502
LOU-NH91	0.399	0.421	0.486	0.424	0.4	0.533	0.535	0.538	0.564	0.538	0.465	0.416	0.48	0.519	0.502	0.494	0.492	0.537	0.501	0.523
NCI-H2347	0.34	0.318	0.453	0.269	0.288	0.415	0.446	0.445	0.418	0.432	1.06	0.919	0.81	0.865	0.728	1.11	0.979	1.1	1.1	0.889
NCI-H2126	0.573	0.532	0.439	0.394	0.401	0.342	0.338	0.364	0.342	0.314	1.11	1.04	1.01	0.984	0.852	0.726	0.722	0.653	0.504	0.444
HCC-827	0.14	0.135	0.16	0.175	0.15	0.158	0.139	0.164	0.171	0.136	0.704	0.25	0.299	0.316	0.342	0.172	0.157	0.183	0.17	0.184
NCI-H3122	0.95	0.778	0.675	0.739	0.553	0.179	0.184	0.174	0.182	0.187	1.05	1.02	1.06	0.967	1.04	0.81	0.685	0.716	0.738	0.705
HOP-62	0.701	0.639	0.731	0.648	0.693	0.415	0.431	0.523	0.48	0.445	0.69	0.723	0.731	0.915	0.724	0.977	0.599	1.14	1.08	0.689
